# Assay: recombinant barcode read abundance after kanamycin selection (control-corrected) (log10(CPM+1)); higher = more efficient recombination; sequences stand for … in AGTGCAGAGAAAATCGGCCAGTTTTCTCTGCCTGCAGTCCGCATGCCGT…AGATTTATGCAGCGGACTGCCTTTCTCCCAAAGTGATAAACCGGACAGTATCATGGACCGGTTTTCCCGGTAATCCGTATTTGCAAGGTTGGTTTCACT; site = the 11-nt target
# Procedure, shortened: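 Reported as log10(CPM+1), each value stands for recombination efficiency. That efficiency is the averaged, control-corrected counts per million of barcodes found at recombinant junctions. Cells from a pooled E. coli library pairing targets with IS621 bridge RNA target-binding loops were plated twice on chloramphenicol/ampicillin LB agar (control) and twice on chloramphenicol/ampicillin/kanamycin with 0.1 mM IPTG.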
# 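Also: IS621 recombinase and bridge RNA in Escherichia coli cells.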
row,Sequence,recombinant barcode read abundance (log10)
1,GCATCCTCTTGGGTTCTAACCTGTTGCCA (site GCATCCTCTTG),0.584
2,GCTCGAACTTGGGTTCTAACCTGTTGCCT (site GCACGAACTAG),0.46
3,ACCTCGGCTTGGGTTCTAACCTGTTGCTG (site ACCTCGGCTCA),0.399
4,AGAGTCTCTTGGGTTCTAACCTGTTGCTG (site AGAGTCCCTCC),0.101
5,GGCACCACTTGGGTTCTAACCTGTTGCCG (site GGCACCACTCG),0.295
6,ATTTGGACTTGGGTTCTAACCTGTTGCCT (site ATTTGTACTAG),0.0943
7,ACCAGATCTTGGGTTCTAACCTGTTGCCT (site TCCAGCTCTAG),0.152
8,TAGAAGACTTGGGTTCTAACCTGTTGCTC (site TAGAAGACTTA),0.0266
9,CCACCTTCTTGGGTTCTAACCTGTTGCCT (site CCACCTTCTAG),0.0666
10,CTAGACCCTTGGGTTCTAACCTGTTGCCT (site GTAGACCCTAG),0.223
11,CCGTAATCTTGGGTTCTAACCTGTTGCCT (site CCGTAAGCTAG),0.211
12,GCTCGAACTTGGGTTCTAACCTGTTGCCT (site GCCCGAACTAG),0.138
13,GTCAATCCTTGGGTTCTAACCTGTTGCGG (site GTCAATCCTCC),1.25
14,TTAGTGGCTTGGGTTCTAACCTGTTGCCT (site TTAGTAGCTAG),0.607
15,CAAAGGTCTTGGGTTCTAACCTGTTGCTA (site TAAAGGCCTTA),0.0182
16,GCAAGGGCTTGGGTTCTAACCTGTTGCCG (site GCTAGGGCTCT),0.303
17,AATAAGTCTTGGGTTCTAACCTGTTGCCT (site AATAAGTCTAG),0.483
18,AGGTAGACTTGGGTTCTAACCTGTTGCCA (site AGGTAGACTTG),1.5
19,ACATGTACTTGGGTTCTAACCTGTTGCAT (site ACATGCACTAT),0
20,TCCAATCCTTGGGTTCTAACCTGTTGCAG (site TCCAAACCTCT),0.114
21,TGAACTACTTGGGTTCTAACCTGTTGCCT (site TGAAATACTAG),0.0445
22,GAGAGGTCTTGGGTTCTAACCTGTTGCAT (site GAGAGGTCTAA),0.552

row,Sequence,recombinant barcode read abundance (log10)
1,CTCAAGGCTTGGGTTCTAACCTGTTGCGT (site CTCCAGGCTCC),0.128
2,AACATGCCTTGGGTTCTAACCTGTTGCTT (site AACAAGCCTCA),0.233
3,GTCGTCGCTTGGGTTCTAACCTGTTGCCT (site GTCGTCACTAG),0.136
4,ACAAATCCTTGGGTTCTAACCTGTTGCCT (site ACAAACCCTAG),0.292
5,GGAATGCCTTGGGTTCTAACCTGTTGCCT (site GGAATACCTAG),0.79
6,ACGAGTACTTGGGTTCTAACCTGTTGCTG (site ACGAGTACTCC),0.662
7,GACGAGTCTTGGGTTCTAACCTGTTGCTA (site GACGAGTCTTA),1.01
8,CATCCGCCTTGGGTTCTAACCTGTTGCCT (site CATCCGGCTAG),0.0751
9,TTGAGCTCTTGGGTTCTAACCTGTTGCCT (site TTGAGCTCTAG),0.952
10,GAGAGGTCTTGGGTTCTAACCTGTTGCTT (site GAGAGGTCTAA),1.79
11,TTGCCAACTTGGGTTCTAACCTGTTGCCT (site TTGCGAACTAG),0.0564
12,CCTACTCCTTGGGTTCTAACCTGTTGCCT (site CCTGCTCCTAA),0.0634
13,CGCAAATCTTGGGTTCTAACCTGTTGCCT (site CGAAAATCTAG),0.0245
14,GTTAGCCCTTGGGTTCTAACCTGTTGCGG (site GTCAGCCCTCC),0.167
15,GTGTATACTTGGGTTCTAACCTGTTGCCT (site GTATATACTAG),1.12
16,CGGTAGTCTTGGGTTCTAACCTGTTGCTT (site CGGTAGTCTCA),0.0659
17,TCACGTCCTTGGGTTCTAACCTGTTGCGT (site TCACGTCCTAA),0.0145
18,TTAAATCCTTGGGTTCTAACCTGTTGCCT (site ATAAATCCTAG),0.143
19,ATGGACACTTGGGTTCTAACCTGTTGCGT (site ATGGACACTAC),1.93
20,GGGCTTACTTGGGTTCTAACCTGTTGCCT (site GTGCTTACTAG),0.325
21,TACCGCCCTTGGGTTCTAACCTGTTGCGT (site GGAAAGACTGT),0.166
22,TGTCTGCCTTGGGTTCTAACCTGTTGCCT (site TGTCTGCCTAG),0.295

row,Sequence,recombinant barcode read abundance (log10)
1,GTAGACCCTTGGGTTCTAACCTGTTGCCT (site ATAGACCCTAG),2.3
2,CTTAGGACTTGGGTTCTAACCTGTTGCCC (site CTTAGGACTTG),0.00992
3,CGATAGCCTTGGGTTCTAACCTGTTGCCT (site GGATAGCCTAG),0.132
4,TCTGGGGCTTGGGTTCTAACCTGTTGCCG (site TCTGGGGCTCT),0.618
5,TATACAACTTGGGTTCTAACCTGTTGCCT (site TATATAACTAG),0.0752
6,CTCTATACTTGGGTTCTAACCTGTTGCCA (site CTCTATACTTG),0.0112
7,AGGTTTGCTTGGGTTCTAACCTGTTGCCT (site AGGTTTGCTAG),0.0479
8,ATGCATCCTTGGGTTCTAACCTGTTGCCT (site AAGCATCCTAG),0.0651
9,TCGCACCCTTGGGTTCTAACCTGTTGCGA (site TCGAACCCTTC),1.28
10,CAAACTACTTGGGTTCTAACCTGTTGCTA (site CAAACTACTTA),0.386
11,CATCCGACTTGGGTTCTAACCTGTTGCTC (site CATCCGACTGA),0.193
12,AGGTTCCCTTGGGTTCTAACCTGTTGCTA (site AGGTTCCCTCA),0.0107
13,TACCCATCTTGGGTTCTAACCTGTTGCCT (site TAACCATCTAG),0.0921
14,CGCTTACCTTGGGTTCTAACCTGTTGCCT (site TGCTTACCTAG),0.192
15,CATAAGCCTTGGGTTCTAACCTGTTGCCT (site CATAAGCCTAG),0.633
16,TATTCTACTTGGGTTCTAACCTGTTGCGC (site TATTCTACTGC),0.0329
17,GTGGAATCTTGGGTTCTAACCTGTTGCCT (site GTGGAATCTAG),1.6
18,CGAGCTCCTTGGGTTCTAACCTGTTGCAT (site CGAGCTCCTAT),1.86
19,CTAACCTCTTGGGTTCTAACCTGTTGCTG (site CTAACCTCTTA),0.0665
20,CAAGTTGCTTGGGTTCTAACCTGTTGCCT (site CAAGTCGCTAG),0.305
21,TAGAGCTCTTGGGTTCTAACCTGTTGCGT (site TAGAACTCTAC),0.246
22,TGTTGTGCTTGGGTTCTAACCTGTTGCCT (site TGTTGTGCTAG),0.109

row,Sequence,recombinant barcode read abundance (log10)
1,GGTGCTCCTTGGGTTCTAACCTGTTGCAA (site GGTGCTCCTCT),0.0634
2,AATGCTCCTTGGGTTCTAACCTGTTGCTT (site AATGCTCCTAG),0.103
3,CTAGTTGCTTGGGTTCTAACCTGTTGCAA (site CTACTTGCTTT),0.229
4,CCTAGATCTTGGGTTCTAACCTGTTGCCT (site CCTAGAACTAG),0.107
5,TTGAGATCTTGGGTTCTAACCTGTTGCCT (site TTGAGATCTAG),0.0355
6,ATATCAACTTGGGTTCTAACCTGTTGCCG (site ATATCAACTCG),0.625
7,TTCAAAGCTTGGGTTCTAACCTGTTGCCT (site TTCAAAGCTAG),0.0407
8,AATAAGTCTTGGGTTCTAACCTGTTGCCT (site ACTAAGTCTAG),0.0757
9,AGCTGATCTTGGGTTCTAACCTGTTGCCT (site GGCTGATCTAG),0.147
10,TGGCCTTCTTGGGTTCTAACCTGTTGCCT (site TGGCCTTCTAG),0.781
11,AGTGTCGCTTGGGTTCTAACCTGTTGCGG (site AGTGTCGCTCC),1.6
12,GCTAGTCCTTGGGTTCTAACCTGTTGCGT (site GCTAGTCCTCA),0.0737
13,GAATCAACTTGGGTTCTAACCTGTTGCTT (site GACTCGACTAA),0.119
14,AATTGAGCTTGGGTTCTAACCTGTTGCCT (site AATTCAGCTAG),0.0625
15,CTCTATCCTTGGGTTCTAACCTGTTGCGT (site CTCTACCCTAC),0.218
16,GTAGTACCTTGGGTTCTAACCTGTTGCCT (site GTAGTAACTAG),0.0694
17,CCTAACGCTTGGGTTCTAACCTGTTGCCT (site CCTAACGCTAG),0.625
18,AGTGTCGCTTGGGTTCTAACCTGTTGCGG (site AGTATCGCTCC),0.96
19,GCTCCTCCTTGGGTTCTAACCTGTTGCAT (site GCTCCTCCTAT),1.15
20,CGTTCTCCTTGGGTTCTAACCTGTTGCCT (site GGTTCTCCTAG),0.0547
